Consider 20 compounds from ChEMBL document CHEMBL4732258, “Pyxinol bearing amino acid residues: Easily achievable and promising modulators of P-glycoprotein-mediated multidrug resistance” (Eur J Med Chem, 2021).

Molecules are shown by their SMILES.

Format in all cases: cell-based
Data set [1] can be described thus: Cytotoxicity against human KBV cells assessed as cell viability at 10 uM incubated for 72 hrs by MTT assay. To be noted: read-out: Activity.
In data set [2] the test system is KBV. In words: Reversal of Pgp-mediated paclitaxel resistance in human KBV cells assessed as cell viability at 10 uM in presence of paclitaxel incubated for 72 hrs by MTT assay.
Data set [3] relates to KBV. As to the kind of experiment: Reversal of Pgp-mediated paclitaxel resistance in human KBV cells assessed as cell viability at 5 uM in presence of paclitaxel incubated for 72 hrs by MTT assay.

On to `CC(C)(O)[C@@H]1CC[C@@](C)([C@H]2CC[C@]3(C)[C@@H]2[C@H](O)C[C@@H]2[C@@]4(C)CC[C@H](O)C(C)(C)[C@@H]4CC[C@]23C)O1`, for which the viability at 72 h, 10 µM in data set [1] is 81%. The results for the Activity in the data set on KBV [2] and in the data set on KBV [3] were 72% and 74%, respectively.
For `CC(C)(C)OC(=O)N[C@@H](Cc1ccc(OC(C)(C)C)cc1)C(=O)O[C@H]1CC[C@]2(C)[C@H]3C[C@@H](O)[C@@H]4[C@@H]([C@]5(C)CC[C@H](C(C)(C)O)O5)CC[C@@]4(C)[C@]3(C)CC[C@H]2C1(C)C` the same measures were 98%, 71% and 107%.
For `CC(C)(O)[C@@H]1CC[C@@](C)([C@H]2CC[C@]3(C)[C@@H]2[C@H](O)C[C@@H]2[C@@]4(C)CC[C@H](OC(=O)[C@@H](N)CCC(=O)O)C(C)(C)[C@@H]4CC[C@]23C)O1` the same measures were 112%, 92% and 95%.
`CC(C)[C@H](N)C(=O)O[C@H]1CC[C@]2(C)[C@H]3C[C@@H](O)[C@@H]4[C@@H]([C@]5(C)CC[C@@H](C(C)(C)O)O5)CC[C@@]4(C)[C@]3(C)CC[C@H]2C1(C)C`: the viability at 72 h, 10 µM in data set [1] was 96%. Also, the Activity in the data set with KBV [2] (filed as modulator) turned out to be 25%; in the data set with KBV [3] (filed as modulator) it was 49%.
With `CC(C)(C)OC(=O)NCCCC[C@H](NC(=O)OC(C)(C)C)C(=O)O[C@H]1CC[C@]2(C)[C@H]3C[C@@H](O)[C@@H]4[C@@H]([C@]5(C)CC[C@@H](C(C)(C)O)O5)CC[C@@]4(C)[C@]3(C)CC[C@H]2C1(C)C`, the viability at 72 h, 10 µM in data set [1] amounted to 123%. For the same compound, the Activity with KBV [2] (filed as modulator) turned out to be 21%; with KBV [3] (filed as modulator) it was 28%.
The corresponding values for `CC(C)(C)OC(=O)N[C@@H](Cc1ccccc1)C(=O)O[C@H]1CC[C@]2(C)[C@H]3C[C@@H](O)[C@@H]4[C@@H]([C@]5(C)CC[C@@H](C(C)(C)O)O5)CC[C@@]4(C)[C@]3(C)CC[C@H]2C1(C)C` are 17%, 16% and 17%.
For the compound `CC(C)(O)[C@@H]1CC[C@@](C)([C@H]2CC[C@]3(C)[C@@H]2[C@H](O)C[C@@H]2[C@@]4(C)CC[C@H](OC(=O)[C@@H](N)CC(=O)O)C(C)(C)[C@@H]4CC[C@]23C)O1`, the viability at 72 h, 10 µM in data set [1] turned out to be 106%. Also, the Activity in the data set with KBV [2] came to 92%; in the data set with KBV [3], 110%.
Consider `CC(C)(C)OC(=O)NCCCC[C@H](NC(=O)OC(C)(C)C)C(=O)O[C@H]1CC[C@]2(C)[C@H]3C[C@@H](O)[C@@H]4[C@@H]([C@]5(C)CC[C@H](C(C)(C)O)O5)CC[C@@]4(C)[C@]3(C)CC[C@H]2C1(C)C`, for which the viability at 72 h, 10 µM in data set [1] amounted to 147%. The results for the Activity in the data set with KBV [2] (filed as modulator) and in the data set on KBV [3] (filed as modulator) were 31% and 34%, respectively.
For `CC(C)(C)OC(=O)CC[C@H](NC(=O)OC(C)(C)C)C(=O)O[C@H]1CC[C@]2(C)[C@H]3C[C@@H](O)[C@@H]4[C@@H]([C@]5(C)CC[C@@H](C(C)(C)O)O5)CC[C@@]4(C)[C@]3(C)CC[C@H]2C1(C)C` the same measures were 46%, 17% and 19%.
Consider `CC(C)(C)OC(=O)C[C@H](NC(=O)OC(C)(C)C)C(=O)O[C@H]1CC[C@]2(C)[C@H]3C[C@@H](O)[C@@H]4[C@@H]([C@]5(C)CC[C@@H](C(C)(C)O)O5)CC[C@@]4(C)[C@]3(C)CC[C@H]2C1(C)C`, for which the viability at 72 h, 10 µM in data set [1] is 88%. The Activity worked out at 17% with KBV [2] (filed as modulator) and 35% in the data set on KBV [3] (filed as modulator).
Turning to `C[C@@H](OCc1ccccc1)[C@H](NC(=O)OC(C)(C)C)C(=O)O[C@H]1CC[C@]2(C)[C@H]3C[C@@H](O)[C@@H]4[C@@H]([C@]5(C)CC[C@@H](C(C)(C)O)O5)CC[C@@]4(C)[C@]3(C)CC[C@H]2C1(C)C`, the viability at 72 h, 10 µM in data set [1] was 76%. For the same compound, the Activity with KBV [2] (filed as modulator) was determined as 19%; in the data set on KBV [3] (filed as modulator), 24%.
As for `CC(C)(O)[C@H]1CC[C@@](C)([C@H]2CC[C@]3(C)[C@@H]2[C@H](O)C[C@@H]2[C@@]4(C)CC[C@H](OC(=O)CN)C(C)(C)[C@@H]4CC[C@]23C)O1`, the viability at 72 h, 10 µM in data set [1] is 106%. The Activity with KBV [2] (filed as modulator) amounted to 28%; in the data set on KBV [3] (filed as modulator) it was 43%.
As for `CC(C)(C)OC(=O)N[C@@H](Cc1cn(C(=O)OC(C)(C)C)c2ccccc12)C(=O)O[C@H]1CC[C@]2(C)[C@H]3C[C@@H](O)[C@@H]4[C@@H]([C@]5(C)CC[C@H](C(C)(C)O)O5)CC[C@@]4(C)[C@]3(C)CC[C@H]2C1(C)C`, the viability at 72 h, 10 µM in data set [1] was 132%. Further, the results for the Activity with KBV [2] and in the data set with KBV [3] were 161% and 165%, respectively.
For `CC(C)(O)[C@H]1CC[C@@](C)([C@H]2CC[C@]3(C)[C@@H]2[C@H](O)C[C@@H]2[C@@]4(C)CC[C@H](OC(=O)[C@@H](N)CC(=O)O)C(C)(C)[C@@H]4CC[C@]23C)O1` the same measures were 95%, 61% and 106%.
Regarding `CC(C)[C@H](N)C(=O)O[C@H]1CC[C@]2(C)[C@H]3C[C@@H](O)[C@@H]4[C@@H]([C@]5(C)CC[C@H](C(C)(C)O)O5)CC[C@@]4(C)[C@]3(C)CC[C@H]2C1(C)C`, in data set [1], the viability at 72 h, 10 µM amounted to 84%. For the same compound, the Activity is 23% in the data set with KBV [2] (filed as modulator) and 33% in the data set with KBV [3] (filed as modulator).
On to `CC(C)(C)OC(=O)N[C@@H](Cc1ccc(OC(C)(C)C)cc1)C(=O)O[C@H]1CC[C@]2(C)[C@H]3C[C@@H](O)[C@@H]4[C@@H]([C@]5(C)CC[C@@H](C(C)(C)O)O5)CC[C@@]4(C)[C@]3(C)CC[C@H]2C1(C)C`, for which, in data set [1], the viability at 72 h, 10 µM was found to be 104%. Also, the Activity in the data set with KBV [2] (filed as modulator) was found to be 22%; in the data set with KBV [3], 78%.
For `CC(C)(O)[C@@H]1CC[C@@](C)([C@H]2CC[C@]3(C)[C@@H]2[C@H](O)C[C@@H]2[C@@]4(C)CC[C@H](OC(=O)[C@@H](N)Cc5ccc(O)cc5)C(C)(C)[C@@H]4CC[C@]23C)O1` the same measures were 97%, 35% and 87%.
Regarding `CC(C)(O)[C@H]1CC[C@@](C)([C@H]2CC[C@]3(C)[C@@H]2[C@H](O)C[C@@H]2[C@@]4(C)CC[C@H](OC(=O)[C@@H](N)Cc5ccccc5)C(C)(C)[C@@H]4CC[C@]23C)O1`, the viability at 72 h, 10 µM in data set [1] was determined as 74%. The Activity was 21% with KBV [2] (filed as modulator) and 26% in the data set on KBV [3] (filed as modulator).
Turning to `CC(C)[C@H](NC(=O)OC(C)(C)C)C(=O)O[C@H]1CC[C@]2(C)[C@H]3C[C@@H](O)[C@@H]4[C@@H]([C@]5(C)CC[C@@H](C(C)(C)O)O5)CC[C@@]4(C)[C@]3(C)CC[C@H]2C1(C)C`, the viability at 72 h, 10 µM in data set [1] came to 128%. Besides, the results for the Activity in the data set with KBV [2] and in the data set on KBV [3] were 110% and 106%, respectively.
Turning to `CC(C)(O)[C@H]1CC[C@@](C)([C@H]2CC[C@]3(C)[C@@H]2[C@H](O)C[C@@H]2[C@@]4(C)CC[C@H](OC(=O)[C@@H](N)Cc5c[nH]c6ccccc56)C(C)(C)[C@@H]4CC[C@]23C)O1`, the viability at 72 h, 10 µM in data set [1] stood at 81%. Moreover, the Activity in the data set with KBV [2] (filed as modulator) stood at 30%; in the data set on KBV [3] (filed as modulator), 32%.
